Reference: ChEMBL document CHEMBL3885881, “DrugMatrix”

Organism: Rattus norvegicus
Test: DrugMatrix - Regimen: Daily Repeat
Format: toxicity, organism-based, Sprague-Dawley
Design: regimen Daily Repeat, gender Male, age 6-8 weeks
Details: in vivo, po, route oral GAVAGE, vehicle 100 % WATER; for ABSOLUTE BASOPHIL / ABSOLUTE EOSINOPHIL / ABSOLUTE LYMPHOCYTE / ABSOLUTE MONOCYTE / ABSOLUTE SEGMENTED NEUTROPHIL / BASOPHIL / EOSINOPHIL / ERYTHROCYTE COUNT / HEMATOCRIT / HEMOGLOBIN / LEUKOCYTE COUNT / LYMPHOCYTE / MEAN CORPUSCULAR HEMOGLOBIN / MEAN CORPUSCULAR HEMOGLOBIN CONCENTRATION / MEAN CORPUSCULAR VOLUME / MONOCYTE / NEUTROPHIL / NUCLEATED RED BLOOD CELLS / PLATELET COUNT: tissue Blood; for ALANINE AMINOTRANSFERASE / ALBUMIN / ALKALINE PHOSPHATASE / ASPARTATE AMINOTRANSFERASE / BLOOD UREA NITROGEN / CARBON DIOXIDE / CHLORIDE / CHOLESTEROL / CREATINE PHOSPHOKINASE / CREATININE / GLUCOSE / LACTATE DEHYDROGENASE / LIPASE / PHOSPHORUS / POTASSIUM / SODIUM / TOTAL BILIRUBIN / TOTAL PROTEIN / URIC ACID: tissue Plasma
[1] = 20 mg/kg, 120 h, dose level Low, time 5 day
[2] = 70 mg/kg, 72 h, dose level High, time 3 day
[3] = 70 mg/kg, 120 h, dose level High, time 5 day

## CCCC(C)C1(CC)C(=O)NC(=O)NC1=O (centres undefined) [PENTOBARBITAL]
[1]
  ABSOLUTE BASOPHIL: 0 CELLS/uL
  ABSOLUTE EOSINOPHIL: 0 CELLS/uL
  ABSOLUTE LYMPHOCYTE: 9855 CELLS/uL
  ABSOLUTE MONOCYTE: 58 CELLS/uL
  ABSOLUTE SEGMENTED NEUTROPHIL: 1187 CELLS/uL
  BASOPHIL: 0%
  EOSINOPHIL: 0%
  ERYTHROCYTE COUNT: 5.44 x10E6/uL
  HEMATOCRIT: 34.1%
  HEMOGLOBIN: 13.23 G/DL
  LEUKOCYTE COUNT: 11.1 x10E3/uL
  LYMPHOCYTE: 89%
  MEAN CORPUSCULAR HEMOGLOBIN: 24.33 pg
  MEAN CORPUSCULAR HEMOGLOBIN CONCENTRATION: 38.83 G/DL
  MEAN CORPUSCULAR VOLUME: 62.67 fL
  MONOCYTE: 0.67%
  NEUTROPHIL: 10.33%
  NUCLEATED RED BLOOD CELLS: 0 /100WBC
  PLATELET COUNT: 1231.67 x10E3/uL
  ALANINE AMINOTRANSFERASE: 60.33 u/L
  ALBUMIN: 3.8 G/DL
  ALKALINE PHOSPHATASE: 346 u/L
  ASPARTATE AMINOTRANSFERASE: 88.33 u/L
  BLOOD UREA NITROGEN: 17 mg/dL
  CARBON DIOXIDE: 32.67 mmol/L
  CHLORIDE: 99.33 MEQ/L
  CHOLESTEROL: 71.67 mg/dL
  CREATINE PHOSPHOKINASE: 344.67 u/L
  CREATININE: 0.19 mg/dL
  GLUCOSE: 155 mg/dL
  LACTATE DEHYDROGENASE: 163 u/L
  LIPASE: 8.67 u/L
  PHOSPHORUS: 11.17 mg/dL
  POTASSIUM: 5.63 MEQ/L
  SODIUM: 145.17 MEQ/L
  TOTAL BILIRUBIN: 0.17 mg/dL
  TOTAL PROTEIN: 5.63 G/DL
  URIC ACID: 0.67 mg/dL
[2]
  ABSOLUTE BASOPHIL: 0 CELLS/uL
  ABSOLUTE EOSINOPHIL: 29 CELLS/uL
  ABSOLUTE LYMPHOCYTE: 9707 CELLS/uL
  ABSOLUTE MONOCYTE: 106.67 CELLS/uL
  ABSOLUTE SEGMENTED NEUTROPHIL: 824 CELLS/uL
  BASOPHIL: 0%
  EOSINOPHIL: 0.33%
  ERYTHROCYTE COUNT: 5.46 x10E6/uL
  HEMATOCRIT: 34.73%
  HEMOGLOBIN: 13.4 G/DL
  LEUKOCYTE COUNT: 10.67 x10E3/uL
  LYMPHOCYTE: 91%
  MEAN CORPUSCULAR HEMOGLOBIN: 24.57 pg
  MEAN CORPUSCULAR HEMOGLOBIN CONCENTRATION: 38.63 G/DL
  MEAN CORPUSCULAR VOLUME: 63.53 fL
  MONOCYTE: 1%
  NEUTROPHIL: 7.67%
  NUCLEATED RED BLOOD CELLS: 0 /100WBC
  PLATELET COUNT: 792 x10E3/uL
  ALANINE AMINOTRANSFERASE: 58 u/L
  ALBUMIN: 4.2 G/DL
  ALKALINE PHOSPHATASE: 300.33 u/L
  ASPARTATE AMINOTRANSFERASE: 75.67 u/L
  BLOOD UREA NITROGEN: 13 mg/dL
  CARBON DIOXIDE: 34.67 mmol/L
  CHLORIDE: 101.33 MEQ/L
  CHOLESTEROL: 81.33 mg/dL
  CREATINE PHOSPHOKINASE: 230 u/L
  CREATININE: 0.16 mg/dL
  GLUCOSE: 139 mg/dL
  LACTATE DEHYDROGENASE: 113.33 u/L
  LIPASE: 9 u/L
  PHOSPHORUS: 11.77 mg/dL
  POTASSIUM: 6.23 MEQ/L
  SODIUM: 146.57 MEQ/L
  TOTAL BILIRUBIN: 0.2 mg/dL
  TOTAL PROTEIN: 6.17 G/DL
  URIC ACID: 0.73 mg/dL
[3]
  ABSOLUTE BASOPHIL: 0 CELLS/uL
  ABSOLUTE EOSINOPHIL: 23.33 CELLS/uL
  ABSOLUTE LYMPHOCYTE: 7811.33 CELLS/uL
  ABSOLUTE MONOCYTE: 0 CELLS/uL
  ABSOLUTE SEGMENTED NEUTROPHIL: 598.67 CELLS/uL
  BASOPHIL: 0%
  EOSINOPHIL: 0.33%
  ERYTHROCYTE COUNT: 5.7 x10E6/uL
  HEMATOCRIT: 36%
  HEMOGLOBIN: 13.73 G/DL
  LEUKOCYTE COUNT: 8.43 x10E3/uL
  LYMPHOCYTE: 92.33%
  MEAN CORPUSCULAR HEMOGLOBIN: 24.1 pg
  MEAN CORPUSCULAR HEMOGLOBIN CONCENTRATION: 38.17 G/DL
  MEAN CORPUSCULAR VOLUME: 63.17 fL
  MONOCYTE: 0%
  NEUTROPHIL: 7.33%
  NUCLEATED RED BLOOD CELLS: 0 /100WBC
  PLATELET COUNT: 1184.67 x10E3/uL
  ALANINE AMINOTRANSFERASE: 60 u/L
  ALBUMIN: 4.2 G/DL
  ALKALINE PHOSPHATASE: 346 u/L
  ASPARTATE AMINOTRANSFERASE: 81 u/L
  BLOOD UREA NITROGEN: 14 mg/dL
  CARBON DIOXIDE: 33 mmol/L
  CHLORIDE: 99 MEQ/L
  CHOLESTEROL: 74.33 mg/dL
  CREATINE PHOSPHOKINASE: 461.33 u/L
  CREATININE: 0.13 mg/dL
  GLUCOSE: 131.67 mg/dL
  LACTATE DEHYDROGENASE: 142.67 u/L
  LIPASE: 11.67 u/L
  PHOSPHORUS: 10.57 mg/dL
  POTASSIUM: 5.73 MEQ/L
  SODIUM: 145.3 MEQ/L
  TOTAL BILIRUBIN: 0.2 mg/dL
  TOTAL PROTEIN: 6.17 G/DL
  URIC ACID: 0.53 mg/dL
